This note sets out measurements from patent publication US8895753B2, “S1P receptor modulating agent” (Meiji Seika Pharma Co., Ltd., priority 2011, dated 2014).

Molecules are shown by their SMILES.

One data set deals with electrocardiogram. The data set can be described thus: Evaluation of electrocardiogram in a rat (under anesthesia). The data set is classed as in vivo. The protocol: Under anesthesia, femoral artery was cannulated in a 7-11-week-old male SD rat (Charles River Laboratories Japan Inc.) that had been reared for more than one week, connected to a polygraph (NIHON KODEN) via a pressure transducer. Without consciousness, a vehicle (dimethylsulfoxide) or a test compound was intravenously administered. After the administration, blood pressure, the heart rate, and electrocardiogram were monitored for about 10 minutes.

Another data set has as its system enterobacterium. Nature of the data set: Stability against enterobacterium (feces / cecum homogenates). The data set is classed as in vitro ADME. Particulars: cynomolgus monkey feces and rat cecum homogenates, 3 and 30 μM, 37° C., 24 hours; all conditions. The protocol: A culture medium was added to fresh feces of a cynomolgus monkey and rat cecum to prepare homogenates. To a homogenate was added the compound of the Example 2, or 1-{4-[5-(4-isopropoxyphenyl)-1,2,4-oxadiazol-3-yl]benzyl}azetidine-3-carboxylic acid (the compound of the Example 29 of Non-Patent Document 5) adjusted at a concentration of 3 and 30 μM, and the mixture was anaerobically cultured at 37° C. for 24 hours. After the cultivation, the concentration of the residual compound in the culture medium was measured on LC-MS.

For data set [1], the target named is T1, Human S1P1 receptor (Homo sapiens, UniProt P21453). Nature of the data set: Agonist activity at an S1P1 receptor ([35S]-GTPγS exchange reaction, membrane fractions). Particulars: read-out: EC50, agonist activity at S1P1 receptor (GTP exchange reaction). The class given is biochemical. The protocol: (§1) By using membrane fractions prepared from a human S1P1 receptor expressing cells (Multispan Ltd.), the agonist activity of each test compound was measured by [^35S]-GTPγS exchange reaction in accordance with a standard procedure (Methods in Molecular Biology, Vol. 552, p 143-151 (2009)), and EC50 (nM) of each test compound was computed.
T1 sequence (P21453 whole entry): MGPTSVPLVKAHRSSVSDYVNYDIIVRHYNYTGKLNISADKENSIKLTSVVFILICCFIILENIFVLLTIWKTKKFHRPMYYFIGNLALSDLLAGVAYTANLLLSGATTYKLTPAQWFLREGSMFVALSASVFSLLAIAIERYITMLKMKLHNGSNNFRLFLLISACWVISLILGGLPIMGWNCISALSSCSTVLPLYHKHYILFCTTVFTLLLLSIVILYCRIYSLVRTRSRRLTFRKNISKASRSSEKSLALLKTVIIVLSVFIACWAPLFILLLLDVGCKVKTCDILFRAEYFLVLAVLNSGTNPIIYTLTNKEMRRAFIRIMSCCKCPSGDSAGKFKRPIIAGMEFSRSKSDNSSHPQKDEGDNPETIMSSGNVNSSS

The next data set has as its target Human S1P3 receptor (Homo sapiens, UniProt Q99500). Nature of the data set: Agonist activity at an S1P3 receptor ([35S]-GTPγS exchange reaction at 1000 nM). The data set is classed as biochemical. Particulars: read-out: percent of the maximal agonist activity at S1P3 receptor. The protocol: as §1
By using membrane fractions prepared from Human S1P3 receptor expressing cells (Multispan Inc.), the agonist activity of the compound in the present invention was measured by a [^35S]-GTPγS exchange reaction at 1000 nM by the similar method of the Experimental Example 2.

A further data set addresses T2, Human S1P4 receptor (Homo sapiens, UniProt O95977).
T2 sequence (O95977 1-384): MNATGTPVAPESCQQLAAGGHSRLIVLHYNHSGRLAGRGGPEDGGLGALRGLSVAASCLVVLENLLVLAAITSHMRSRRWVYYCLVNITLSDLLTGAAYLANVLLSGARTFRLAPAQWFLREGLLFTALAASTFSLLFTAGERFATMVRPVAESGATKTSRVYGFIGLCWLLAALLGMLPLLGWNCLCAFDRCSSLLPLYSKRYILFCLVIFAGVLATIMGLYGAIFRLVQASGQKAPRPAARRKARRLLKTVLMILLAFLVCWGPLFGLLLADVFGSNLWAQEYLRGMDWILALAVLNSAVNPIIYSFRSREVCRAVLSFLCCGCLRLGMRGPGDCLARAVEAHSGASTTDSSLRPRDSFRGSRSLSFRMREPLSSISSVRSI
The data set can be described thus: Agonist activity at an S1P4 receptor (calcium influx). The class given is cell-based. The conditions noted are these: at 1000 nM; read-out: activity at S1P4 receptor (elevation of intracellular calcium). The protocol: By using Human S1P4 receptor expressing cells (Multispan Inc. CG1052-1), the elevation of intracellular calcium concentration via agonist activity by the addition of 1000 nM was measured by Fret method (fluorescence resonance energy transfer).

Data set [2] has as its target T1, Human S1P1 receptor. The data set can be described thus: Agonist activity at an S1P1 receptor (reporter assay, EDG1-bla/U2OS cells). Also on record: host or cells: U2OS (EDG1-bla/U2OS). The conditions noted are these: S1P maximum response = 100%. The data set is classed as cell-based. The protocol:
Human S1P1 receptor gene recombinant EDG1-bla/U2OS cells (Life Technologies Japan Ltd.) were plated in a 96-well half-sized clear bottom black plate at a density of 10000 cells/32 μL/well, and then the plate was incubated at 37° C. in a 5% CO2 incubator for 48 hours. A culture medium containing each test compound prepared as a 5× concentrate was added at 8 μL/well, and the plate was incubated at 37° C. in a 5% CO2 incubator for 5 hours. The substrate (LiveBLAzer™-FRET B/G substrate (CCF4-AM), Life Technologies Japan Ltd.) prepared as a 6× concentrate was added at 8 μL into each well, and the plate was incubated at room temperature for 2 hours in the dark. The fluorescence intensity of each well was detected using a bottom-reading fluorescence microplate reader (EnVision: ParkinElmer) at one excitation wavelength and 2 wavelengths for fluorescence emission (Ex409 nm, Em460 nm, Em530 nm). The intensity ratio of fluorescence at 460 nm/530 nm was calculated for each well. The maximum response ratio confirmed from the dose response of SIP was expressed as 100%. The concentration of a test compound required to stimulate 50% of its maximal activation was computed as EC50 (nM).

The test system of the next data set is heart rate. The data set can be described thus: Evaluation of the heart rate in a rat (under consciousness). The data set is classed as in vivo. Particulars: vascular administration. The protocol:
Under anesthesia, femoral artery was cannulated in a 7-11-week old male SD rat (Charles River Laboratories Japan Inc.) that had been reared for more than one week. Arterial cannula was connected to a pressure transducer, and under consciousness changes in the heart rate were monitored with a polygraph (Nihon Kohden) up to 4 hours after the vascular administration of the vehicle (10% PEG300-0.01M KOH saline) or the test compounds. The dose that lowered the heart rate by 20% was computed as TD20 (mg/kg body weight).

Data set [3] has as its system electrocardiogram / monophasic action potential (MAP). The data set can be described thus: Evaluation of cardiovascular system in a guinea pig. The data set is classed as in vivo. Particulars: anesthetized guinea pig, 0.1 mg/kg body weight, infusion. The source says:
Under anesthesia with 0.5 to 1% of halothane, to a male Hartley guinea-pig (Japan SLC, Inc.) that had been reared for more than one week, a catheter for administration of a drug solution was placed into the left jugular vein, a monophasic action potential (MAP) measurement/pacing catheter was placed into the endothelial lining of the right ventricle, a catheter for measuring blood pressure was placed into the left carotid artery, and the measurement of body surface electrocardiogram (lead II) was conducted. The drug solution was infused for 10 minutes and the measurement was carried out over 60 minutes. Also, 5, 10, 15, 20, 30, 45 and 60 minutes after the administration of the drug solution, pacing was performed (200, 240, 300 bpm), and monophasic action potential (MAP) was measured.

Another data set concerns blood lymphocytic cells. Nature of the data set: Suppressive effect on circulating lymphocytic cells in a rat. The class given is in vivo. The conditions noted are these: 6 hours after administration. The protocol: Under anesthesia, a femoral artery was cannulated in a 7-11-week old male SD rat (Charles River Laboratories Japan Inc.) that had been reared for more than one week. A vehicle (in case of intravascular administration, 10% PEG300-0.01 M KOH saline was used, and in case of oral administration, 0.5% hydroxymethyl cellulose solution was used) or a test compound was administered intravascularly or by gavage administration. Right before the administration or 2, 4, 6 hours after the administration, the number of blood lymphocytic cells was counted by using an automated hematology analyzer XT-1800i or XT-2000i (Sysmex). The count of lymphocytic cells right before the administration was regarded as 100%, and the dose of the test compound that reduced blood lymphocytic cells by 50% of vehicle-treated group at the point of 6 hours after the administration was calculated as ED50 (mg/kg body weight).

[4] abbreviates: anesthetized rat, intravenous 0.1 mg/kg body weight.

Sequence of Human S1P3 receptor (Q99500 whole entry): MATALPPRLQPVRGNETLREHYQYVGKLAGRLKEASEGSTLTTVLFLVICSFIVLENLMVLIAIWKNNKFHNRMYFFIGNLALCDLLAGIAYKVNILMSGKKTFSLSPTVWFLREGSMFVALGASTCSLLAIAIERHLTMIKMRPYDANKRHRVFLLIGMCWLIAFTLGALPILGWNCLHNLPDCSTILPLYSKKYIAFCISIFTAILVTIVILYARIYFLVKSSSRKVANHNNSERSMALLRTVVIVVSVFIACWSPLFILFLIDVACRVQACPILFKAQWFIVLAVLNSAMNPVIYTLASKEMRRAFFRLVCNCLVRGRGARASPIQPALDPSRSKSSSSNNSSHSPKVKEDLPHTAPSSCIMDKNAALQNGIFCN

For `CC(C)Oc1ccc(-c2nc(-c3ccc(CN4CC(C(=O)O)C4)cc3)no2)cc1` [1-{4-[5-(4-isopropoxyphenyl)-1,2,4-oxadiazol-3-yl]benzyl}azetidine-3-carboxylic acid], in the data set with electrocardiogram (setting [4]), the “cardiac arrest (cases)” value is 1 out of 3 and the “duration of continuous cardiac arrhythmia (AV block)” value was 170 s. The “residual compound after anaerobic culture with homogenate” value in the data set with enterobacterium is no more than 2%.

As to `CC(C)Cc1ccc(-c2cnc(-c3ccc(CN4CC(C(=O)O)C4)cc3F)s2)cc1C#N` [Example 59, 1-(4-(5-(3-cyano-4-isobutylphenyl)thiazol-2-yl)-3-fluorobenzyl)azetidine-3-carboxylic acid], the EC50 was no more than 50 nM at Human S1P1 receptor [1] and no more than 1 nM at Human S1P1 receptor [2]. The Emax at 1 µM at Human S1P3 receptor is less than 20%. Also, the activation at 1 µM at Human S1P4 receptor was less than 20%.

Turning to `CC(C)Oc1ccc(-c2cnc(-c3ccc(CN4CC(C(=O)O)C4)cc3Cl)s2)cc1Cl` [Example 60, 1-(3-chloro-4-(5-(3-chloro-4-isopropoxyphenyl)thiazol-2-yl)benzyl)azetidine-3-carboxylic acid], the EC50 was no more than 10 nM at Human S1P1 receptor [1] and no more than 1 nM on Human S1P1 receptor [2]. Moreover, at Human S1P3 receptor, the Emax at 1 µM lay in the range of 20 to 50%. Also, the activation at 1 µM at Human S1P4 receptor is less than 20%.

`COc1cc(CN2CC(C(=O)O)C2)ccc1-c1ncc(-c2ccc(OC(C)C)c(Cl)c2)s1` [Example 61, 1-(4-(5-(3-chloro-4-isopropoxyphenyl)thiazol-2-yl)-3-methoxybenzyl)azetidine-3-carboxylic acid]: the EC50 is no more than 10 nM on Human S1P1 receptor [1] and no more than 100 nM at Human S1P1 receptor [2]. The Emax at 1 µM on Human S1P3 receptor was less than 20%. At Human S1P4 receptor, the activation at 1 µM was less than 20%.

As for `Cc1cc(-c2ncc(-c3ccc(OC(C)C)c(Cl)c3)s2)ccc1CN1CC(C(=O)O)C1` [Example 62, 1-(4-(5-(3-chloro-4-isopropoxyphenyl)thiazol-2-yl)-2-methylbenzyl)azetidine-3-carboxylic acid], the concentration for a half-maximal effect (EC50) was no more than 10 nM on Human S1P1 receptor [1] and no more than 1 nM at Human S1P1 receptor [2]. Moreover, the Emax at 1 µM at Human S1P3 receptor was 20 to 50%. In addition, the activation at 1 µM on Human S1P4 receptor was less than 20%.

Take `CC(C)Oc1ccc(-c2cnc(-c3ccc(CN4CC(C(=O)O)C4)c(Cl)c3)s2)cc1Cl` [Example 63, 1-(2-chloro-4-(5-(3-chloro-4-isopropoxyphenyl)thiazol-2-yl)benzyl)azetidine-3-carboxylic acid]: the EC50 is no more than 50 nM at Human S1P1 receptor [1] and no more than 1 nM at Human S1P1 receptor [2]. The Emax at 1 µM at Human S1P3 receptor is less than 20%. Further, the activation at 1 µM at Human S1P4 receptor is less than 20%.

In the case of `COc1cc(-c2ncc(-c3ccc(OC(C)C)c(Cl)c3)s2)ccc1CN1CC(C(=O)O)C1` [Example 64, 1-(4-(5-(3-chloro-4-isopropoxyphenyl)thiazol-2-yl)-2-methoxybenzyl)azetidine-3-carboxylic acid], the 50% effective concentration (EC50) on Human S1P1 receptor [1] and at Human S1P1 receptor [2] was no more than 10 nM each time. Further, at Human S1P3 receptor, the Emax at 1 µM was less than 20%. For the same compound, the activation at 1 µM at Human S1P4 receptor was less than 20%.

For the compound `CCCCCCCCc1ccc(CCC(N)(CO)CO)cc1` [Fingolimod, reference compound], the “TD20, dose that lowered the heart rate by 20%” value with heart rate (conscious rat) was 0.3 mg/kg body weight. Besides, the TD20/ED50 ratio with heart rate (rat) came out at 5. For the same compound, the MAP90 prolongation effect entry in data set [3] is given as “recognized”. Besides, the “prolonged QT” value in [3] is given as “recognized”. The “ED50, dose reducing blood lymphocytic cells by 50%” value amounted to 0.2 mg/kg body weight with blood lymphocytic cells (gavage administration) and 0.06 mg/kg body weight in the data set with blood lymphocytic cells (vascular administration).

For `CCCCCCCCc1ccc(CCC(N)(CO)COP(=O)(O)O)cc1` (stereo not shown) [phosphorylated form of Fingolimod], the “duration of continuous cardiac arrhythmia (AV block)” value in the data set with electrocardiogram (rat, in vivo, iv, 0.1 mg/kg) is 120 s.
